Measured values reported in paper PMC12442245, “Activity Analysis of the P2X Receptor Antagonist PPADS against Signal Transducer and Activator of Transcription Proteins” (Chembiochem, 2025).

What was measured:
STAT3 = STAT3 (Homo sapiens, UniProt P40763); experiment: HTRF assay, STAT3; format: binding; design: the endogenous full‐length proteins (between 748 and 793 amino acids for STAT3/4/5a/5b); endogenous in cells; host or cells: NK-92 cells (DSMZ), whole-cell lysate; conditions: STAT3 110 nM, without reducing agent, 1 h
Chain of STAT3 (P40763 whole entry, species assumed): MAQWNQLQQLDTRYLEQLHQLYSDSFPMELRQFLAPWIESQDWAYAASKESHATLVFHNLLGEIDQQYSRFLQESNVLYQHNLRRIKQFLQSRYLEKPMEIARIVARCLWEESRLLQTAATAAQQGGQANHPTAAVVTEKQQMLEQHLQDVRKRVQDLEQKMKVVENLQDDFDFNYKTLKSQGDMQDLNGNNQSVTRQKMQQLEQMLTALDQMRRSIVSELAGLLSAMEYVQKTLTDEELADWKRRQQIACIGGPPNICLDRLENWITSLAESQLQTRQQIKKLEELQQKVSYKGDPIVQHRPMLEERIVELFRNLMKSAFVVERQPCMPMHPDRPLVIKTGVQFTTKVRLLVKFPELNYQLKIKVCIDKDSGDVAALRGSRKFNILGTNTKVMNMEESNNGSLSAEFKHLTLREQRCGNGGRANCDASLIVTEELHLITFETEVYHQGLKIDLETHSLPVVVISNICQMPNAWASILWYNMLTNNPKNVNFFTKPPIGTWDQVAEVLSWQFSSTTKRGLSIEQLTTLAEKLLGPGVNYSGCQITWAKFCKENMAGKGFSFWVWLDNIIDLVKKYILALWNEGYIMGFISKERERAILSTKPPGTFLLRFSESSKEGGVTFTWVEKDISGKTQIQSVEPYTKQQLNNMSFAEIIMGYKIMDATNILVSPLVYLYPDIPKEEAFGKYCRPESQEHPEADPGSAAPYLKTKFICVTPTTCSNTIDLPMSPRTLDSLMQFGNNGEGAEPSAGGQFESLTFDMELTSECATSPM
Method: In addition, an HTRF assay was established for STAT3, one of the STAT proteins targeted to a lesser extent in FP assays, as a specificity control (Figure 1B,C). […] A Tb^3+‐cryptate fused to an anti‐6x‐His antibody was chosen as the long‐lived fluorescent donor, while the carboxyfluorescein linked to the respective STAT‐binding peptides served as the acceptor (Figure 2A). Emission was measured with a time delay of 60 μs after excitation, allowing any initial compound fluorescence to decay beforehand.
Homogenous time-resolved fluorescence (HTRF) assays for STAT3, STAT4, STAT5a and STAT5b were carried out using Cisbio Monoclonal Antibody Anti-6His-Tb Gold as the fluorescence donor (Perkin Elmer) and the corresponding CF-labelled binding peptide as the acceptor. Protein at 110 nM (STAT3), 30 nM (STAT4), 110 nM (STAT 5a) or 80 nM (STAT5b) was combined with terbium-labelled antibody at the recommended concentration, 150 nM CF-labelled peptide and compound as indicated, and incubated at room temperature for 1 h. […] Fluorescence /luminescence was measured in Proxiplate 384-well plates (Perkin Elmer), using a 340 nm excitation filter with 520 nm and 620 nm emission filters, with 60 µs time delay. The average reading from 3 wells was obtained. After subtraction of the blank (buffer only) from each reading, the ratio of the 520 nm / 620 nm readings was calculated. […]

STAT5a = biological target: T1, STAT5a (Homo sapiens, UniProt P42229); experiment: Competitive fluorescence polarization (FP) assay, STAT5a; format: binding; conditions: no reducing agent, 1 h
T1 sequence (P42229 1-794): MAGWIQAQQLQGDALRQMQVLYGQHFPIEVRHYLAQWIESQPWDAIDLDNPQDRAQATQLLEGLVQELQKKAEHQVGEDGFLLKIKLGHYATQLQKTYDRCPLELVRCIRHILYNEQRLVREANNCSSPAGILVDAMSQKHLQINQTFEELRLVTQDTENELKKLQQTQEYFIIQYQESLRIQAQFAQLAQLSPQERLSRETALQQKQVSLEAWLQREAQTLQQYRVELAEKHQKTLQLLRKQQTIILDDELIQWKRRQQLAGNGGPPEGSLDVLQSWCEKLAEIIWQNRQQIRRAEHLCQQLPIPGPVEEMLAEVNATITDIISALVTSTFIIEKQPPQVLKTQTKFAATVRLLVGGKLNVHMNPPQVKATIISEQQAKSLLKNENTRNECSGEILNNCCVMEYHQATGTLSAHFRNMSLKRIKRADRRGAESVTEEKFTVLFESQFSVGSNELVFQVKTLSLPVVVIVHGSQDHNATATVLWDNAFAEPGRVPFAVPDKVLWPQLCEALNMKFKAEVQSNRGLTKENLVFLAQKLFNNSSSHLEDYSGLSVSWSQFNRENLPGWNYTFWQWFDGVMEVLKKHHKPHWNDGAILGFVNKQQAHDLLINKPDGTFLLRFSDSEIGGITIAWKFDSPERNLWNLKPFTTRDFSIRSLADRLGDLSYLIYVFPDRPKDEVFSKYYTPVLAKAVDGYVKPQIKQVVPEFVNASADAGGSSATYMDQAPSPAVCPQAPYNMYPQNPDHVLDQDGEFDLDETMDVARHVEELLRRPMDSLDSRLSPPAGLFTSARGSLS
Source text: Screening of chemical libraries
Screening of chemical libraries comprising approximately 5000 known bioactive compounds in fluorescence polarization-based assays against phosphorylation-dependent protein-protein interaction domains, including STAT proteins, has been described.[1] PPADS was purchased from Sigma-Aldrich, and iso-PPADS from Bio-Techne.
Fluorescence polarization assays
Competitive fluorescence polarization (FP) assays for STAT1,[2] STAT3,[3] STAT4,[4] STAT5a,[5] STAT5b[6] and STAT6[1] were performed as previously described. Briefly, peptide binding to proteins was analyzed using the following carboxyfluorescein (CF) -labelled pepti des at a concentration of 10 nM: STAT1: 5-CF-GpYDKPHVL-OH, STAT3: 5-CF-GpYLPQTV -NH2, STAT4: 5-CF-GpYLPQNID-OH, STAT5a and STAT5b: 5-CF-GpYLVLDKW-OH, STAT6: 5- […]
CFGp[…]-OH. […] FP was measured using an Infinite F500 plate reader (Tecan) and measurements were converted into percent inhibition according to the binding curve equation. Curves were plotted and best fits calculated using OriginPro […]
Homogenous time-resolved fluorescence (HTRF) assays for STAT3, STAT4, STAT5a and STAT5b were carried out using Cisbio Monoclonal Antibody Anti-6His-Tb Gold as the fluorescence donor (Perkin Elmer) and the corresponding CF-labelled binding peptide as the acceptor. […] The average reading from 3 wells was obtained. […]

Cc1nc(/N=N/c2cc(S(=O)(=O)O)ccc2S(=O)(=O)O)c(COP(=O)(O)O)c(C=O)c1O [iso‐PPADS]
IC50 (STAT3): 31.9 ± 4 µM
IC50 (STAT5a): 4.8 ± 0.4 µM

Cc1nc(/N=N/c2ccc(S(=O)(=O)O)cc2S(=O)(=O)O)c(COP(=O)(O)O)c(C=O)c1O [PPADS, pyridoxalphosphate‐6‐azophenyl‐2',4'‐disulfonic acid]
IC50 (STAT3): 29.6 ± 4 µM
IC50 (STAT5a): 1.5 ± 0.2 µM
